Active and inactive are the calls of the source. The calls are words filed in the database; no cut-off is given here.

The target in the first experiment is T1, Epidermal growth factor receptor (Homo sapiens, UniProt P00533). Description: Inhibition of EGF-induced EGFR internalization in human HeLa cells assessed as subcellular localization of receptor at 500 nM measured after 15 to 20 mins post receptor activation by immunostaining-based confocal microscopy analysis. In kind it is cell-based.
T1 sequence (P00533 whole entry): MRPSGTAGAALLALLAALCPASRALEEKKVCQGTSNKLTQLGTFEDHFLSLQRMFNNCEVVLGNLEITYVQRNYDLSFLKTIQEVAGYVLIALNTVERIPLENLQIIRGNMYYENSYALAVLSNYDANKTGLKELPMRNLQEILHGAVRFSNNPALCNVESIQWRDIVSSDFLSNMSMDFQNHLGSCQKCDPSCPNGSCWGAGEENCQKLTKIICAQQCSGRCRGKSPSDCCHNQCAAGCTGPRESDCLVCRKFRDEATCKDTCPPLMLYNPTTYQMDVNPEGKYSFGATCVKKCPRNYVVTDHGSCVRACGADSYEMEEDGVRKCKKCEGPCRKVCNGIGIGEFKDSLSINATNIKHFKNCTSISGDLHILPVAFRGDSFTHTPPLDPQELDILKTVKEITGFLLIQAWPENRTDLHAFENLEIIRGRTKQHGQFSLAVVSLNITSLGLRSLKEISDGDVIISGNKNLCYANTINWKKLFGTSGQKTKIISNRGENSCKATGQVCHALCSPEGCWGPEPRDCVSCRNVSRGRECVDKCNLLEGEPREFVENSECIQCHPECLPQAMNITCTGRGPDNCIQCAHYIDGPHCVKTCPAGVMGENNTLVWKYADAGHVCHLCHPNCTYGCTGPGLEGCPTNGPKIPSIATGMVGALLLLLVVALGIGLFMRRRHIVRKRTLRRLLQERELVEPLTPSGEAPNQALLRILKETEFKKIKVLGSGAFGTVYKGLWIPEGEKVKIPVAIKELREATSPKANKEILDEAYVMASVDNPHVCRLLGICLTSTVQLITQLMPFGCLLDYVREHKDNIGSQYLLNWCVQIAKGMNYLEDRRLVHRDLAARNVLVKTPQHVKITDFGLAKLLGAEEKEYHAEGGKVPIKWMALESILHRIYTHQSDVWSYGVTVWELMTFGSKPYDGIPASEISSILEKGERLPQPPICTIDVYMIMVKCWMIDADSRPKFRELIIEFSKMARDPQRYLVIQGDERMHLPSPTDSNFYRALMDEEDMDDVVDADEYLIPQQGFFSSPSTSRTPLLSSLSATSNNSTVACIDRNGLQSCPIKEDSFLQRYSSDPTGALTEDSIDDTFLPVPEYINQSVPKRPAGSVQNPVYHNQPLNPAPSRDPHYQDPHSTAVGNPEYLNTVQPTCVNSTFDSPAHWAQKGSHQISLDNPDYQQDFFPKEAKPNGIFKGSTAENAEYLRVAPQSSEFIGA
As to `C[C@@H](Nc1ncnc2[nH]c(-c3ccc(O)cc3)cc12)c1ccccc1`, the inhibition result was “inactive”.

A further experiment addresses T1, Epidermal growth factor receptor. Put plainly: Inhibition of EGFR by Z-LYTE assay.
With `CC[C@@H](Nc1ncnc2[nH]c(-c3ccc(O)cc3)cc12)c1ccccc1`, the IC50 – broadly, the point on the concentration scale where inhibition reaches its midpoint – worked out at 4 nM.

In turn, `C[C@@H](Nc1ncnc2[nH]c(-c3ccc(O)cc3)cc12)c1ccc(Br)cc1` had an IC50 of 62 nM.

Take `Oc1ccc(-c2cc3c(NCc4cccc(F)c4)ncnc3[nH]2)cc1`: the IC50 was 52 nM.

Take `C[C@@H](Nc1ncnc2[nH]c(-c3ccc(O)cc3)cc12)c1ccc(F)cc1`: the IC50 came to 3.8 nM.

Compound `C[C@@H](Nc1ncnc2[nH]c(-c3ccc(F)cc3)cc12)c1ccccc1` displayed an IC50 of 6.6 nM.

Consider `CC(Nc1ncnc2[nH]c(-c3ccc(O)cc3)cc12)c1cccc2ccccc12` (racemic), for which half-maximal inhibition (IC50) was put at 1010 nM.

Regarding `C[C@@H](Nc1ncnc2[nH]c(-c3ccc(Br)cc3)cc12)c1ccccc1`, half-maximal inhibition (IC50) was put at 63 nM.

On to `C[C@@H](Nc1nc[nH]c2nc(-c3ccccc3)cc1-2)c1ccccc1`, for which the IC50 came to 3.3 nM.

For the compound `Oc1ccc(-c2cc3c(NCc4ccccc4F)ncnc3[nH]2)cc1`, the IC50 was determined as 45 nM.

With `C[C@@H](Nc1ncnc2[nH]c(-c3ccc(O)cc3)cc12)c1ccccc1`, half-maximal inhibition (IC50) required 3.7 nM.

The compound `Cc1cccc(C(C)Nc2ncnc3[nH]c(-c4ccc(O)cc4)cc23)c1` (racemic) gave an IC50 of 95 nM.

Compound `C[C@@H](Nc1ncnc2[nH]c(-c3ccc(O)cc3)cc12)c1cccc(F)c1` displayed an IC50 of 9 nM.

Turning to `Cc1ccccc1C(C)Nc1ncnc2[nH]c(-c3ccc(O)cc3)cc12` (racemic), the IC50 came out at 17 nM.

`Oc1ccc(-c2cc3c(NCc4ccccc4)ncnc3[nH]2)cc1` registered a half-maximal inhibitory concentration (IC50) of 3.3 nM.

Consider `CC(Nc1ncnc2[nH]c(-c3ccc(O)cc3)cc12)c1ccc(C(F)(F)F)cc1` (racemic), for which the IC50 amounted to 4610 nM.

`C[C@@H](Nc1ncnc2[nH]c(-c3ccc(O)cc3)cc12)c1ccccc1F` showed an IC50 of 8 nM.

In the case of `C[C@@H](Nc1ncnc2[nH]c(-c3ccc(Br)cc3)cc12)c1ccc(F)cc1`, the IC50 was 29 nM.

Take `C[C@@H](Nc1ncnc2[nH]c(-c3ccc(C#N)cc3)cc12)c1ccccc1`: the half-inhibitory concentration (IC50) amounted to 12 nM.

Turning to `C[C@@H](Nc1ncnc2[nH]c(-c3ccc(C#N)cc3)cc12)c1ccc(F)cc1`, it took 14 nM to reach half-maximal inhibition (IC50).

On to `C[C@@H](Nc1ncnc2[nH]c(-c3ccccc3)cc12)c1ccc(F)cc1`, for which the IC50 worked out at 33 nM.

Regarding `Cc1ccc([C@@H](C)Nc2ncnc3[nH]c(-c4ccc(O)cc4)cc23)cc1`, inhibition was half-maximal at 450 nM (IC50).

With `C[C@@H](Nc1ncnc2[nH]c(-c3ccc(F)cc3)cc12)c1ccc(F)cc1`, the IC50 turned out to be 27 nM.

On to `COc1ccc(-c2cc3c(N[C@H](C)c4ccccc4)ncnc3[nH]2)cc1`, for which inhibition was half-maximal at 4.7 nM (IC50).

`Oc1ccc(-c2cc3c(NCc4ccc(F)cc4)ncnc3[nH]2)cc1` returned an IC50 of 26 nM.

For the origin of these results see ChEMBL document CHEMBL1914342, “Synthesis and in vitro EGFR (ErbB1) tyrosine kinase inhibitory activity of 4-N-substituted 6-aryl-7H-pyrrolo[2,3-d]pyrimidine-4-amines” (Eur J Med Chem, 2011).
